# Source: US7842808B2, “Anti-migraine spirocycles” (Bristol-Myers Squibb Company, priority 2002, dated 2010)
# Where two headings read alike, the source gives them in different places.
# How the values were obtained:
# [1] = molecular target: T1, human CGRP receptor (SK-N-MC cells) (Homo sapiens, UniProt O60894+Q16602); experiment: Schild analysis of CGRP stimulated cAMP production; type: cell-based; details: for slope: Schild plot slope; for Kb: Schild analysis, dissociation constant of the antagonist, read-out: Kb
# T1 construct: SK-N-MC cells that endogenously express the human CGRP receptor; endogenous in cells; host or cells: SK-N-MC cells
# Procedure: Functional Antagonism. Antagonism of the compounds of invention was determined by measuring the formation of cyclic AMP (adenosine 3′5′-cyclic monophosphate) in SK-N-MC cells that endogenously express the human CGRP receptor. CGRP receptor complex is coupled with Gs protein and CGRP binding to this complex leads to the cyclic AMP production via Gs—dependent activation of an adenylate cyclase (Juaneda C et al., TiPS, 2000; 21:432-438; incorporated by reference herein). Consequently, CGRP receptor antagonists inhibit CGRP-induced cyclic AMP formation in SK-N-MC cells (Doods H et al., Br J Pharmacol, 2000; 129(3):420-423); incorporated by reference herein). For cyclic AMP measurements SK-N-MC cells were incubated with 0.3 nM CGRP alone or in the presence of various concentrations of the compounds of invention for 30 min at room temperature. Compounds of invention were pre-incubated with SK-N-MC cells for 15 min before the addition of CGRP to allow receptor occupancy (Edvinsson et al., Eur J Pharmacol, 2001, 415:39-44; incorporated by reference herein). Cyclic AMP was extracted using the lysis reagent and its concentration was determined by radioimmunoassay using RPA559 cAMP SPA Direct Screening Assay Kit (Amersham Pharmacia Biotech). IC50 values were calculated using Excel fit.
# Schild Analysis. Schild analysis can be used to characterize the nature of antagonism of the compounds of invention. The dose response of CGRP stimulated cAMP production was generated either with CGRP alone, or in the presence of various concentrations of compounds of invention. The antagonist dose is plotted as X against the dose ratio (defined as IC50 of agonist with the presence of the compounds divided by the IC50 of the agonist alone) minus 1 as Y. Linear regression was then performed with both X and Y axis log-transformed. […] Kb is the dissociation constant of the antagonist.
# [2] = test system: CGRP-induced increase in laser Doppler facial blood flow; experiment: Non-terminal laser Doppler facial blood flow model in non-human primate; type: in vivo, common marmoset (Callithrix jacchus); details: for % Inhibition of CGRP-induced increase in laser Doppler facial blood flow: iv, CGRP 10 μg/kg; for inhibition of CGRP-induced increase in laser Doppler facial blood flow (in words): delivered prior to hαCGRP (pre-treatment)
# Source text: Overview. […] Non-human primates (e.g., marmosets) are the only animals known to have human-like CGRP receptor pharmacology conferred by the presence of the specific amino acid residue (Trp74) in their RAMP1 sequence which is responsible for the phenotype of the human receptor (Mallee et al. J Biol Chem 2002 277:14294). […] Peptide and small-molecule CGRP-receptor antagonists were used to validate the non-human primate model.
# Animals. Adult male and female common marmosets (Callithrix jacchus) purchased from Harlan and weighing 350-550 g served as subjects. Other mammals endogenously expressing RAMP1 having Trp 74 or transgenic mammals with humanized RAMP1 having Trp 74 can also be employed in A compound described herein.
# Anesthesia & Surgical Preparation. Animals are anesthetized by isoflurane inhalation in an induction chamber (4-5% rapid induction, maintained with 1-2.5%; Solomon et al., 1999). Anesthesia is maintained by delivering a constant supply of air:oxygen (50:50) and isoflurane via face mask, or by intubation and ventilation (with blood gas monitoring). Body temperature is maintained at 38±0.5° C. by placement on an automated temperature controlled surface with rectal probe. A small area of fur (approx. 1.5 cm square) is removed from one or both sides of the face by application of a depilatory cream and/or shaving. Surgical areas are clipped and prepared with betadine. An i.v. line is placed in any accessible vein for the administration of test compounds and CGRP-receptor agonist and, if needed, withdrawal of blood samples (max 2.5 ml, 10%) for blood gas monitoring and content analysis. A solution of 5% dextrose is administered i.v. in order to maintain blood sugar levels. Anesthesia depth is monitored by measuring blood pressure and heart rate using a non-invasive arm cuff method and a pulse oximeter, respectively. Guanethidine 5-10 mg/kg i.v., supplemented with 5 mg/kg i.v. as needed, may be given to stabilize the peak flux in facial blood flow seen with repeated stimulation-induced changes in blood flow (Escott et al., 1999; incorporated by reference herein). Microvascular blood flow is monitored by attaching a self adhesive laser Doppler flow probe to the facial skin.
# Compound Administration Test compounds may be administered i.v. (0.01-5 ml/kg), i.m. (0.01-0.5 ml/kg), s.c. (0.01-5 ml/kg) or p.o. (0.1-10 ml/kg) (Diehl et al., 2001; incorporated by reference herein). CGRP-receptor agonists may be delivered i.v. (0.01-5 ml/kg), i.d. (10-100 μl/site) or s.c. (10-100 μl/site).
# [3] = test system: human cerebral vessels (CGRP-induced dilation); experiment: Ex Vivo Human Cerebral Artery Assay, reversal of CGRP-induced relaxation; details: reversal of 1 nM hCGRP-induced relaxation, vessels pre-contracted with 10 mM KCl
# Source text: Rationale and Overview. To provided direct evidence of the ability for novel compounds to reverse CGRP-induced dilation in human cerebral vessels, an ex vivo assay was design. Briefly, isolated vessel rings were mounted in a tissue bath where vessels were pre-contracted with potassium chloride (KCl) and fully dilated with hCGRP, then this relaxation was reversed by the cumulative addition of CGRP-receptor antagonists (complete details follow).
# Tissue Samples. Autopsy samples of human arteries were obtained from vendors (ABS Inc. or NDRI). All vessels were transported on ice-cold HEPES buffer (composition in mM: NaCl 130, KCl 4, KH2PO4 1.2, MgSO4 1.2, CaCl2 1.8, Glucose 6, NaHCO3 4, HEPES 10, EDTA 0.025). Upon receipt, the vessels were placed in cold Kreb's buffer (composition in mM: NaCl 118.4, KCl 4.7, KH2PO4 1.2, MgSO4 1.2, CaCl2 1.8, Glucose 10.1, NaHCO3 25) saturated with carbogen (5% CO2 and 95% oxygen).
# Isolated Tissue Baths. The vessels were cleaned of connective tissues and cut into cylindrical segments of 4-5 mm in length. The vessels were then mounted in tissue baths between two stainless steel hooks; one of which is fixed and the other of which was connected to a force displacement transducer. The vessel tension was continuously recorded using a data acquisition system (Powerlab, ADInstruments, Mountain View, Calif.) connected to the transducer. The tissue baths containing Krebs buffer and mounted vessels were temperature (37° C.) and pH (7.4) controlled with continuous bubbling of carbogen. The artery segments were allowed to equilibrate for about 30-45 min until a stable resting tone was achieved. Prior to the assay, vessels were primed (conditioned) with 100 mM KCl and subsequently washed. The vessels were pre-contracted with 10 mM KCl and fully dilated with 1 nM hCGRP. Concentration-response curves to CGRP-receptor antagonists were performed by the cumulative addition of drugs in half log units in fully dilated vessels. At each concentration, the effects of the drugs were expressed as % reversal of CGRP-induced relaxation in each vessel. The actual assay and data analysis were performed for each vessel individually, fitting the concentration-response data to a four parameter logistic function by non-linear regression analysis, to estimate the EC50 values.
# [4] = molecular target: T1, human CGRP receptor (SK-N-MC cells); experiment: Cyclic AMP Assay, functional antagonism of CGRP-induced cyclic AMP formation; type: cell-based
# In short: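 SK-N-MC cells, which endogenously express human CGRP receptor, stimulated with 0.3 nM CGRP with or without compound for 30 min at room temperature. Cellular cAMP extracted by lysis and quantified by SPA radioimmunoassay; IC50 from inhibition of CGRP-induced cAMP.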
# [5] = molecular target: T2, CGRP receptor (SK-N-MC cell membranes) (Homo sapiens, UniProt O60894+Q16602); experiment: CGRP Binding Assay ([125I]-CGRP radioligand binding, SK-N-MC homogenate); details: displacement of [125I]-CGRP, SK-N-MC homogenate; read-out: CGRP binding IC50
# T2 construct: endogenous in cells; host or cells: SK-N-MC cells (membrane homogenate)
# [6] = SK-N-MC cells, 0.3 nM CGRP, read-out: cAMP Function IC50
# T2 sequence (Q16602 23-461): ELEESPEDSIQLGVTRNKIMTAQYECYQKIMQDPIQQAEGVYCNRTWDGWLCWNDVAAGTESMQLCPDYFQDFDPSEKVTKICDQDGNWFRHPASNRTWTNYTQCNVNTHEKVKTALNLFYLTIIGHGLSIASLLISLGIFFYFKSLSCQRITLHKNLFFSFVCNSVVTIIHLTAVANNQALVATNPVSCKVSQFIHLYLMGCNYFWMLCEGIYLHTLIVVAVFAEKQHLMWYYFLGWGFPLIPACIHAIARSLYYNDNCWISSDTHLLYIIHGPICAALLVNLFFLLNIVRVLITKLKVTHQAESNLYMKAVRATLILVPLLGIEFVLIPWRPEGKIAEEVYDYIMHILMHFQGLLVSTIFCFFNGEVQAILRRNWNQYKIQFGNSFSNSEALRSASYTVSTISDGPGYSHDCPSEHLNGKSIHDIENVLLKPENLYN
# T2 sequence (O60894 27-148): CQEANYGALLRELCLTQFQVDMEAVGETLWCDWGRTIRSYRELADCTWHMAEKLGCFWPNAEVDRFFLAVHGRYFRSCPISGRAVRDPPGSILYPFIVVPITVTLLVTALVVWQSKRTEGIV
# T1 sequence (Q16602 23-461): as the sequence (Q16602 23-461) above
# T1 sequence (O60894 27-148): as the sequence (O60894 27-148) above
Compound,slope [1],% Inhibition of CGRP-induced increase in laser Doppler facial blood flow ([2]; 0.01 mg/kg),% Inhibition of CGRP-induced increase in laser Doppler facial blood flow ([2]; 0.03 mg/kg),% Inhibition of CGRP-induced increase in laser Doppler facial blood flow ([2]; 0.1 mg/kg),% Inhibition of CGRP-induced increase in laser Doppler facial blood flow ([2]; 0.3 mg/kg),% Inhibition of CGRP-induced increase in laser Doppler facial blood flow ([2]; 1 mg/kg),inhibition of CGRP-induced increase in laser Doppler facial blood flow (in words) [2],EC50 [3] [nM],"IC50 [4, 6] [nM]",Kb [1] [nM],IC50 [5] [nM],IC50 [4] [nM]
"O=C(N[C@H](Cc1ccc2[nH]ncc2c1)C(=O)N1CCC(N2CCCCC2)CC1)N1CCC(N2Cc3ccccc3NC2=O)CC1 [Example 2, (R)-4-(2-Oxo-1,4-dihydro-2H-quinazolin-3-yl)-piperidine-1-carboxylic acid[2-[1,4′]bipiperidinyl-1′-yl-1-(1H-indazol-5-ylmethyl)-2-oxo-ethyl]-amide]",0.94,W (W≦25%),X (25%<X≦50%),X (25%<X≦50%),Y (50%<Y≦75%),Z (Z>75%),dose-dependently inhibits,< 10,,,,
"O=C(NC(Cc1cc(Cl)c2[nH]ncc2c1)C(=O)N1CCC(N2CCCCC2)CC1)N1CCC(N2Cc3ccccc3NC2=O)CC1 (racemic) [Example 43, (±)-4-(2-Oxo-1,4-dihydro-2H-quinazolin-3-yl)-piperidine-1-carboxylic acid[2-[1,4′]bipiperidinyl-1′-yl-1-(7-chloro-1H-indazol-5-ylmethyl)-2-oxo-ethyl]-amide]",1.2,,,,,,,< 10,< 10,0.018,< 10,
"Cc1cc(CC(CC(=O)N2CCC(N3Cc4ccccc4NC3=O)CC2)C(=O)N2CCC3(CC2)OCCO3)cc2cn[nH]c12 (racemic) [Example 70, (±)-1-(1,4-Dioxa-8-aza-spiro[4.5]dec-8-yl)-2-(7-methyl-1H-indazol-5-ylmethyl)-4-[4-(2-oxo-1,4-dihydro-2H-quinazolin-3-yl)-piperidin-1-yl]-butane-1,4-dione]",0.71,,,,,,,< 10,,,< 10,< 10
"O=C(NC(Cc1ccc2[nH]ncc2c1)C(=O)N1CCC(N2CCCCC2)CC1)N1CCC(N2Cc3ccccc3NC2=O)CC1 (racemic) [Example 6, (±)-4-(2-Oxo-1,4-dihydro-2H-quinazolin-3-yl)-piperidine-1-carboxylic acid[2-[1,4′]bipiperidinyl-1′-yl-1-(1H-indazol-5-ylmethyl)-2-oxo-ethyl]-amide]",0.93,,,,,Z (Z>75%),,< 10,,,,
"hαCGRP(8-37): ""the peptide antagonist hαCGRP(8-37)"" [reference compound]",,,,,,Z (Z>75%),dose-dependently inhibited,,,,,
"O=C(N[C@H](Cc1ccc2[nH]c(=O)oc2c1)C(=O)N1CCC(N2CCCCC2)CC1)N1CCC(N2Cc3ccccc3NC2=O)CC1 [Example 47, (R)-4-(2-Oxo-1,4-dihydro-2H-quinazolin-3-yl)-piperidine-1-carboxylic acid[2-[1,4′]bipiperidinyl-1′-yl-2-oxo-1-(2-oxo-2,3-dihydro-benzooxazol-6-ylmethyl)-ethyl]-amide]",0.93,,,,,,,< 10,< 10,0.1,< 10,
